Earlier results on 2 molecules are cited in patent US9333184B2, “Composition and method for affecting male and female hormone levels” (NOKOMIS RESEARCH, INC., priority 2011, dated 2016).

The conditions of this series: for ingested amount metabolically degraded: intestine to blood stream.

With `NCCCNCCCCNCCCN` [spermine], the “ingested amount metabolically available” value is recorded as “about 70%” and the “ingested amount metabolically degraded” value is 30%.
With `NCCCCNCCCN` [spermidine], the “ingested amount metabolically available” value is given as “about 70%” and the “ingested amount metabolically degraded” value is on record as 30%.
